# Data as given in PubChem BioAssay AID192 (DTP/NCI, 2004).
# Where “and” joins values, the source holds several entries; their conditions need not be identical. Equal values may be shown once. Toxic doses and inconclusive results are not listed. Bridge positions count the residues as written; N and C are the ends. Square brackets hold non-standard residues; d marks the D form. Peptide text beside a SMILES is read from it. I, II: the chains in the order shown. * marks the point of attachment. Quinoxaline2carbonyl = O=C(c1cnc2ccccc2n1)*; NMeV = CN[CH](C(=O)O)C(C)C; NMeC = CN[CH](CS)C(=O)O; Cbz = O=C(OCc1ccccc1)*
# System: BDF1 mice, B16 melanoma ip, median survival T/C
# Assay: NCI In Vivo Anticancer Drug Screen. Data for tumor model B16 Melanoma (intraperitoneal) in B6D2F1 (BDF1) mice
# Details: endpoint: median survival time, higher = longer survival
# Method in brief: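 Vehicle-treated animals serve as the reference (C); treated animals (T) are scored for survival or tumor size after tumor transplantation.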
# [1] = dose: 12.5 mg/kg/injection, schedule: Q01DX009 (ip), vehicle: Klucel (hydroxypropylcellulose) (HPC)
# [2] = dose: 25.0 mg/kg/injection, schedule: Q01DX009 (ip), vehicle: Klucel (hydroxypropylcellulose) (HPC)
# [3] = dose: 50.0 mg/kg/injection, schedule: Q01DX009 (ip), vehicle: Klucel (hydroxypropylcellulose) (HPC)
# [4] = dose: 100.0 mg/kg/injection, schedule: Q01DX009 (ip), vehicle: Klucel (hydroxypropylcellulose) (HPC)
# [5] = dose: 200.0 mg/kg/injection, schedule: Q01DX009 (ip), vehicle: Klucel (hydroxypropylcellulose) (HPC)
# [6] = dose: 25.0 mg/kg/injection, schedule: Q01DX009 (ip), vehicle: saline with Tween-80
# [7] = dose: 50.0 mg/kg/injection, schedule: Q01DX009 (ip), vehicle: saline with Tween-80
# [8] = dose: 100.0 mg/kg/injection, schedule: Q01DX009 (ip), vehicle: saline with Tween-80
# [9] = dose: 200.0 mg/kg/injection, schedule: Q01DX009 (ip), vehicle: saline with Tween-80
# [10] = dose: 6.25 mg/kg/injection, schedule: Q01DX009 (ip), vehicle: saline
# [11] = dose: 12.5 mg/kg/injection, schedule: Q01DX009 (ip), vehicle: saline
# [12] = dose: 25.0 mg/kg/injection, schedule: Q01DX009 (ip), vehicle: saline
# [13] = dose: 100.0 mg/kg/injection, schedule: Q01DX009 (ip), vehicle: saline
structure (smiles),measurement,setting,value
COc1ccc2c3c(c4cc(OC)c(OC)cc4c2c1)C[C@H]1CCCCN1C3,T/C,"dose: 0.13 mg/kg/injection, schedule: Q01DX009 (ip), vehicle: saline",114 % of control
same,T/C,"dose: 0.25 mg/kg/injection, schedule: Q01DX009 (ip), vehicle: saline",109 % of control
same,T/C,"dose: 0.5 mg/kg/injection, schedule: Q01DX009 (ip), vehicle: saline",104 % of control
CC(=O)[C@H]1CC[C@H]2[C@@H]3C[C@H](F)C4=CC(=O)CC[C@]4(C)[C@@]3(F)[C@@H](O)C[C@]12C,T/C,[1],95 % of control
same,T/C,[2],97 % of control
same,T/C,[3],104 % of control
same,T/C,"dose: 100.0 mg/kg/injection, schedule: Q04DX003 (ip), vehicle: saline with Tween-80",102 % of control
same,T/C,"dose: 200.0 mg/kg/injection, schedule: Q04DX003 (ip), vehicle: saline with Tween-80",110 % of control
same,T/C,"dose: 400.0 mg/kg/injection, schedule: Q04DX003 (ip), vehicle: saline with Tween-80",110 % of control
CC1OC(OCc2ccc(-c3ccccc3)cc2)CC(N)C1O (stereo not drawn),T/C,"dose: 1.56 mg/kg/injection, schedule: Q01DX009 (ip), vehicle: water",105 % of control
same,T/C,"dose: 3.13 mg/kg/injection, schedule: Q01DX009 (ip), vehicle: water",95 % of control
same,T/C,"dose: 6.25 mg/kg/injection, schedule: Q01DX009 (ip), vehicle: water",99 % of control
same,T/C,"dose: 12.5 mg/kg/injection, schedule: Q01DX009 (ip), vehicle: water",104 % of control
same,T/C,"dose: 25.0 mg/kg/injection, schedule: Q01DX009 (ip), vehicle: water",87 % of control
Cc1ccc(CS)cc1,T/C,[4],112 % of control
same,T/C,[5],118 % of control
OC(CCN1CCCCC1)(c1ccccc1)C1CC2C=CC1C2 (stereo not drawn),T/C,"dose: 0.19 mg/kg/injection, schedule: Q01DX009 (ip), vehicle: Klucel (hydroxypropylcellulose) (HPC)",96 % of control
same,T/C,"dose: 0.39 mg/kg/injection, schedule: Q01DX009 (ip), vehicle: Klucel (hydroxypropylcellulose) (HPC)",100 % of control
same,T/C,"dose: 0.78 mg/kg/injection, schedule: Q01DX009 (ip), vehicle: Klucel (hydroxypropylcellulose) (HPC)",103 % of control
same,T/C,"dose: 1.56 mg/kg/injection, schedule: Q01DX009 (ip), vehicle: Klucel (hydroxypropylcellulose) (HPC)",100 % of control
same,T/C,"dose: 3.12 mg/kg/injection, schedule: Q01DX009 (ip), vehicle: Klucel (hydroxypropylcellulose) (HPC)",115 % of control
same,T/C,"dose: 6.25 mg/kg/injection, schedule: Q01DX009 (ip), vehicle: Klucel (hydroxypropylcellulose) (HPC)",94 % of control
same,T/C,[1],92 % of control and 96 % of control
same,T/C,[4],89 % of control
COC(=O)C1CCCN1C(=O)C(CCCCNC(=O)OCc1ccccc1)NC(=O)OCc1ccccc1 (stereo not drawn) (Cbz-Lys(Cbz)-Pro-OMe; configuration not given here),T/C,[6],94 % of control
same,T/C,[7],98 % of control
same,T/C,[8],112 % of control
same,T/C,[9],108 % of control
CCCCCCCCCCCCCCCC[N+]1(C)CCN(SN2CC[N+](C)(CCCCCCCCCCCCCCCC)CC2)CC1,T/C,"dose: 1.56 mg/kg/injection, schedule: Q01DX009 (ip), vehicle: saline",93 % of control
same,T/C,"dose: 3.12 mg/kg/injection, schedule: Q01DX009 (ip), vehicle: saline",89 % of control
same,T/C,[10],87 % of control and 89 % of control
CSc1nc(NC(C)C)nc(NC(C)C)n1,T/C,[6],102 % of control
same,T/C,[7],92 % of control
same,T/C,[8],102 % of control
CCCCC(CC)C(O)C(C)C(C)O (stereo not drawn),T/C,[4],97 % of control
same,T/C,[5],87 % of control
"CC1NC(=O)C(NC(=O)c2cnc3ccccc3n2)COC(=O)C(C(C)C)N(C)C(=O)C2CSSCC(C(=O)N(C)C(C(C)C)C(=O)OCC(NC(=O)c3cnc4ccccc4n3)C(=O)NC(C)C(=O)N2C)N(C)C1=O (stereo not drawn) (I: Quinoxaline2carbonyl-SA[NMeC][NMeV] / II: Quinoxaline2carbonyl-SA[NMeC][NMeV]; ester I:1-II:C, I:C-II:1; disulfide I:3-II:3; configuration not given here)",T/C,"dose: 3.0 micrograms/kg/injection, schedule: Q01DX009 (ip), vehicle: Klucel (hydroxypropylcellulose) (HPC)",111 % of control
same,T/C,"dose: 6.0 micrograms/kg/injection, schedule: Q01DX009 (ip), vehicle: Klucel (hydroxypropylcellulose) (HPC)",122 % of control
same,T/C,"dose: 22.5 micrograms/kg/injection, schedule: Q01DX009 (ip), vehicle: Klucel (hydroxypropylcellulose) (HPC)",169 % of control
same,T/C,"dose: 24.0 micrograms/kg/injection, schedule: Q01DX009 (ip), vehicle: Klucel (hydroxypropylcellulose) (HPC)",151 % of control
same,T/C,"dose: 45.0 micrograms/kg/injection, schedule: Q01DX009 (ip), vehicle: Klucel (hydroxypropylcellulose) (HPC)",187 % of control
same,T/C,"dose: 48.0 micrograms/kg/injection, schedule: Q01DX009 (ip), vehicle: Klucel (hydroxypropylcellulose) (HPC)",161 % of control
same,T/C,"dose: 96.0 micrograms/kg/injection, schedule: Q01DX009 (ip), vehicle: Klucel (hydroxypropylcellulose) (HPC)",188 % of control
C#CCC1(OC(N)=O)CCCCC1,T/C,"dose: 6.25 mg/kg/injection, schedule: Q04DX003 (ip), vehicle: Klucel (hydroxypropylcellulose) (HPC)",99 % of control
same,T/C,[11],104 % of control
same,T/C,"dose: 12.5 mg/kg/injection, schedule: Q04DX003 (ip), vehicle: Klucel (hydroxypropylcellulose) (HPC)",97 % of control
same,T/C,[12],100 % of control
same,T/C,"dose: 25.0 mg/kg/injection, schedule: Q04DX003 (ip), vehicle: Klucel (hydroxypropylcellulose) (HPC)",97 % of control
same,T/C,"dose: 50.0 mg/kg/injection, schedule: Q01DX009 (ip), vehicle: saline",89 % of control
same,T/C,"dose: 50.0 mg/kg/injection, schedule: Q04DX003 (ip), vehicle: Klucel (hydroxypropylcellulose) (HPC)",98 % of control
same,T/C,[13],87 % of control
same,T/C,"dose: 100.0 mg/kg/injection, schedule: Q04DX003 (ip), vehicle: Klucel (hydroxypropylcellulose) (HPC)",103 % of control
same,T/C,"dose: 200.0 mg/kg/injection, schedule: Q04DX003 (ip), vehicle: Klucel (hydroxypropylcellulose) (HPC)",95 % of control
CCOC(=O)N1CCc2nc3ccc(Cl)cc3cc21,T/C,[6],113 % of control
same,T/C,[7],111 % of control
same,T/C,[8],124 % of control
same,T/C,[9],106 % of control
COc1ccc(NCc2ccc(C)cc2)cc1,T/C,[4],91 % of control
same,T/C,[5],94 % of control
same,T/C,"dose: 400.0 mg/kg/injection, schedule: Q01DX009 (ip), vehicle: Klucel (hydroxypropylcellulose) (HPC)",91 % of control
O=C1C(=O)c2cccc3cccc1c23,T/C,[11],88 % of control
same,T/C,[12],94 % of control
Cc1cc2c3ccccc3ccc2[n+]2ccccc12,T/C,[10],95 % of control
same,T/C,[11],93 % of control
NCCS(=O)(=O)O,T/C,[13],105 % of control
same,T/C,"dose: 200.0 mg/kg/injection, schedule: Q01DX009 (ip), vehicle: saline",107 % of control
same,T/C,"dose: 400.0 mg/kg/injection, schedule: Q01DX009 (ip), vehicle: saline",110 % of control
same,T/C,"dose: 800.0 mg/kg/injection, schedule: Q01DX009 (ip), vehicle: saline",102 % of control
C=C(C)C(=O)OCC12CCC(C)=CC1OC1C(O)C(OC(=O)CCl)C2(C)C12CO2 (stereo not drawn),T/C,"dose: 0.25 mg/kg/injection, schedule: Q01DX009 (ip), vehicle: water",122 % of control
same,T/C,"dose: 0.5 mg/kg/injection, schedule: Q01DX009 (ip), vehicle: water",124 % of control
same,T/C,"dose: 1.0 mg/kg/injection, schedule: Q01DX009 (ip), vehicle: water",152 % of control
same,T/C,"dose: 2.0 mg/kg/injection, schedule: Q01DX009 (ip), vehicle: water",152 % of control
CC12CC(C(=O)O)C3(O)CC(C)(C1)CC(C)(C2)C3 (stereo not drawn) (tested in a mixture with another compound),T/C,[1],97 % of control and 101 % of control
same,T/C,[2],93 % of control and 107 % of control
same,T/C,[3],94 % of control and 96 % of control
same,T/C,[4],96 % of control and 103 % of control
same,T/C,[5],94 % of control and 98 % of control
Nc1nc2c(ncn2C2OC(CO)C(O)C2O)c(=O)[nH]1 (stereo not drawn),T/C,"dose: 25.0 mg/kg/injection, schedule: Q01DX009 (ip), vehicle: suspension in saline",101 % of control
same,T/C,"dose: 50.0 mg/kg/injection, schedule: Q01DX009 (ip), vehicle: suspension in saline",110 % of control
same,T/C,"dose: 100.0 mg/kg/injection, schedule: Q01DX009 (ip), vehicle: suspension in saline",113 % of control
same,T/C,"dose: 400.0 mg/kg/injection, schedule: Q01DX009 (ip), vehicle: suspension in saline",116 % of control
[CH3][Sn]([CH3])([CH3])[S]C(=S)N1CCOCC1,T/C,"dose: 0.75 mg/kg/injection, schedule: Q01DX009 (ip), vehicle: Klucel (hydroxypropylcellulose) (HPC)",100 % of control
same,T/C,"dose: 1.5 mg/kg/injection, schedule: Q01DX009 (ip), vehicle: Klucel (hydroxypropylcellulose) (HPC)",95 % of control
